Measured values reported in PubChem BioAssay AID2060620 (Molecular Pharmacology Branch, DTP, NCI, 2025).

Tested on: 328373-195-R-J1-PDC complex spheroids, viability % test/control
Assay: Anticancer human tumor 328373-195-R-J1-PDC patient-derived head and neck squamous carcinoma cell line growth inhibition [CLK]
Settings: for IC50: curve of first compound; for viability, T/C: stronger effect = lower value
Outline: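 Multi-cell-type spheroids combined patient-derived tumor cells with HUVEC endothelial cells and human mesenchymal stem cells. Paired agents were dosed in half-log steps down from about clinical Cmax, or from 10 microM where Cmax was unknown.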
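Note: spheroids exposed to the agents for 7 days.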

For `NC(=O)C(=Cn1cnc(-c2cc(C(F)(F)F)cc(C(F)(F)F)c2)n1)c1cncnc1` + CNC(=O)c1ccc(Nc2nc(OC3CCCC3)c3c(-c4ccc5nc(C)oc5c4)c[nH]c3n2)c(OC)c1, the IC50 (second compound 0.0316 µM) was less than 9.49 nM, the IC50 (second compound 0.1 µM) was less than 9.49 nM and the IC50 (second compound 0.316 µM) was less than 9.49 nM. It also gave an IC50 (second compound 1 µM) of less than 9.49 nM, an IC50 (second compound 3.16 µM) of less than 9.49 nM and an IC50 (second compound 10 µM) of less than 9.49 nM. For the same molecule, the viability, T/C (second compound 0.0316 µM, first compound 0.00949 µM) was 38.7%, the viability, T/C (second compound 0.0316 µM, first compound 0.03 µM) was 20.8% and the viability, T/C (second compound 0.0316 µM, first compound 0.0949 µM) was 0.53%. It also gave a viability, T/C (second compound 0.0316 µM, first compound 0.3 µM) of 0.2%, a viability, T/C (second compound 0.0316 µM, first compound 0.949 µM) of 0.1% and a viability, T/C (second compound 0.0316 µM, first compound 3 µM) of 0.07%. For the same molecule, the viability, T/C (second compound 0.1 µM, first compound 0.00949 µM) was 15.9%, the viability, T/C (second compound 0.1 µM, first compound 0.03 µM) was 3.9% and the viability, T/C (second compound 0.1 µM, first compound 0.0949 µM) was 0.26%. It also gave a viability, T/C (second compound 0.1 µM, first compound 0.3 µM) of 0.16%, a viability, T/C (second compound 0.1 µM, first compound 0.949 µM) of 0.11% and a viability, T/C (second compound 0.1 µM, first compound 3 µM) of 0.06%. It also gave a viability, T/C (second compound 0.316 µM, first compound 0.00949 µM) of 6.88%, a viability, T/C (second compound 0.316 µM, first compound 0.03 µM) of 2.56% and a viability, T/C (second compound 0.316 µM, first compound 0.0949 µM) of 0.37%. It also gave a viability, T/C (second compound 0.316 µM, first compound 0.3 µM) of 0.09%, a viability, T/C (second compound 0.316 µM, first compound 0.949 µM) of 0.1% and a viability, T/C (second compound 0.316 µM, first compound 3 µM) of 1.78%. The viability, T/C (second compound 1 µM, first compound 0.00949 µM) was 5.63%, the viability, T/C (second compound 1 µM, first compound 0.03 µM) was 1.81% and the viability, T/C (second compound 1 µM, first compound 0.0949 µM) was 0.17%. It also gave a viability, T/C (second compound 1 µM, first compound 0.3 µM) of 0.06%, a viability, T/C (second compound 1 µM, first compound 0.949 µM) of 0.08% and a viability, T/C (second compound 1 µM, first compound 3 µM) of 0.06%. It also gave a viability, T/C (second compound 3.16 µM, first compound 0.00949 µM) of 5.68%, a viability, T/C (second compound 3.16 µM, first compound 0.03 µM) of 1.86% and a viability, T/C (second compound 3.16 µM, first compound 0.0949 µM) of 0.15%. It also gave a viability, T/C (second compound 3.16 µM, first compound 0.3 µM) of 0.15%, a viability, T/C (second compound 3.16 µM, first compound 0.949 µM) of 1.8% and a viability, T/C (second compound 3.16 µM, first compound 3 µM) of 0.15%. The viability, T/C (second compound 10 µM, first compound 0.00949 µM) was 5.83%, the viability, T/C (second compound 10 µM, first compound 0.03 µM) was 2.16% and the viability, T/C (second compound 10 µM, first compound 0.0949 µM) was 0.18%. For the same molecule, the viability, T/C (second compound 10 µM, first compound 0.3 µM) was 0.11%, the viability, T/C (second compound 10 µM, first compound 0.949 µM) was 0.18% and the viability, T/C (second compound 10 µM, first compound 3 µM) was 0.15%.

`Nc1ccccc1NC(=O)c1ccc(CNC(=O)OCc2cccnc2)cc1` + CNC(=O)c1ccc(Nc2nc(OC3CCCC3)c3c(-c4ccc5nc(C)oc5c4)c[nH]c3n2)c(OC)c1 gave an IC50 (second compound 0.0316 µM) of 55 nM, an IC50 (second compound 0.1 µM) of less than 31.6 nM and an IC50 (second compound 0.316 µM) of less than 31.6 nM. For the same molecule, the IC50 (second compound 1 µM) was less than 31.6 nM, the IC50 (second compound 3.16 µM) was less than 31.6 nM and the IC50 (second compound 10 µM) was less than 31.6 nM. For the same molecule, the viability, T/C (second compound 0.0316 µM, first compound 0.0316 µM) was 54.2%, the viability, T/C (second compound 0.0316 µM, first compound 0.1 µM) was 46.5% and the viability, T/C (second compound 0.0316 µM, first compound 0.316 µM) was 35.2%. For the same molecule, the viability, T/C (second compound 0.0316 µM, first compound 1 µM) was 23.1%, the viability, T/C (second compound 0.0316 µM, first compound 3.16 µM) was 19.5% and the viability, T/C (second compound 0.0316 µM, first compound 10 µM) was 4.85%. It also gave a viability, T/C (second compound 0.1 µM, first compound 0.0316 µM) of 12.5%, a viability, T/C (second compound 0.1 µM, first compound 0.1 µM) of 11.8% and a viability, T/C (second compound 0.1 µM, first compound 0.316 µM) of 10.5%. The viability, T/C (second compound 0.1 µM, first compound 1 µM) was 12.9%, the viability, T/C (second compound 0.1 µM, first compound 3.16 µM) was 13.8% and the viability, T/C (second compound 0.1 µM, first compound 10 µM) was 4.28%. The viability, T/C (second compound 0.316 µM, first compound 0.0316 µM) was 9.94%, the viability, T/C (second compound 0.316 µM, first compound 0.1 µM) was 9.86% and the viability, T/C (second compound 0.316 µM, first compound 0.316 µM) was 8.75%. The viability, T/C (second compound 0.316 µM, first compound 1 µM) was 9.9%, the viability, T/C (second compound 0.316 µM, first compound 3.16 µM) was 15.7% and the viability, T/C (second compound 0.316 µM, first compound 10 µM) was 4.12%. The viability, T/C (second compound 1 µM, first compound 0.0316 µM) was 9.33%, the viability, T/C (second compound 1 µM, first compound 0.1 µM) was 7.31% and the viability, T/C (second compound 1 µM, first compound 0.316 µM) was 9.56%. The viability, T/C (second compound 1 µM, first compound 1 µM) was 11.4%, the viability, T/C (second compound 1 µM, first compound 3.16 µM) was 14.1% and the viability, T/C (second compound 1 µM, first compound 10 µM) was 3.25%. The viability, T/C (second compound 3.16 µM, first compound 0.0316 µM) was 9.23%, the viability, T/C (second compound 3.16 µM, first compound 0.1 µM) was 8.04% and the viability, T/C (second compound 3.16 µM, first compound 0.316 µM) was 10.8%. For the same molecule, the viability, T/C (second compound 3.16 µM, first compound 1 µM) was 10.7%, the viability, T/C (second compound 3.16 µM, first compound 3.16 µM) was 15.6% and the viability, T/C (second compound 3.16 µM, first compound 10 µM) was 3.34%. It also gave a viability, T/C (second compound 10 µM, first compound 0.0316 µM) of 12.2%, a viability, T/C (second compound 10 µM, first compound 0.1 µM) of 9.96% and a viability, T/C (second compound 10 µM, first compound 0.316 µM) of 10.2%. It also gave a viability, T/C (second compound 10 µM, first compound 1 µM) of 12.4%, a viability, T/C (second compound 10 µM, first compound 3.16 µM) of 15.5% and a viability, T/C (second compound 10 µM, first compound 10 µM) of 3.38%.
